Consider 4 compounds from patent publication US10952435B2, “Pyridine-2-carboxamides as nematocides” (SYNGENTA PARTICIPATIONS AG, priority 2013, dated 2021).

As to `O=C(NCCc1ccc(Cl)cc1F)c1ncccc1C(F)(F)F` [A.002, 3-Trifluoromethyl-pyridine-2-carboxylic acid [2-(4-chloro-2-fluoro-phenyl)-ethyl]-amide], the melting point – broadly, the temperature, or range, at which the solid turns liquid – is 69 °C.
`O=C(NCCc1ccc(F)cc1F)c1ncccc1C(F)(F)F` [A.005] displayed a melting point of 78 °C.
In turn, `O=C(NCCc1ccc(C(F)(F)F)cc1F)c1ncccc1C(F)(F)F` [A.001, 3-Trifluoromethyl-pyridine-2-carboxylic acid [2-(2-fluoro-4-trifluoromethyl-phenyl)-ethyl]-amide] had a melting point of 95 °C.
Then `Cc1cccnc1C(=O)NCC(F)(F)c1ccc(Cl)cc1Cl` [A.009, N-[2-(2,4-dichlorophenyl)-2,2-difluoro-ethyl]-3-methyl-pyridine-2-carboxamide], with 117 to 118 °C.
